Values after ≈ are worked out from the molar mass of the structure shown. Like-named read-outs stand apart in the source and are kept apart here.
Tests used:
[1] = tested on: adenovirus strain Type 5, strain adenoid 75; assay: Adenovirus plaque formation assay in skin fibroblast cell line SF; assay type: cell-based, human adenovirus
Text: (§1) Virus stocks. The HIV-1 strain used in this study was HTLV-IIIB (Uckun et al., 1998 Antimicro. Agents and Chemother., 42:383-388). The non-HIV viruses included in the present study were the gancyclovir-sensitive cytomegalovirus (CMV) strain AD169 (ATCC VR-538); acyclovir-sensitive herpes simplex virus (HSV) Type I strain HF (ATCC VR-260); acyclovir-sensitive HSV Type II strain G (ATCC VR-734); adenovirus strain Type 5, strain adenoid 75 (ATCC VR-5); enterovirus strain, ECHO 30, strain Bastianni (ATCC VR-322); and respiratory syncytial virus (RSV), strain Long (ATCC VR-26).
(§2) Plaque formation assays. Plaque assays were used to examine the activity of the compounds against non-HIV viruses. The skin fibroblast cell line SF (ATCC CRL-2097) was used as a target for AD169, Adenovirus Type 5. […] cell line (ATCC CCL-81) was used as a target for HSV HF and G. The HEP-2 cell line (ATCC CCL-23) was used as a target for the RSV strain Long. These cell lines were cultured at 1×10^5 cells/well in 24-well (all but ECHO 30-infected SF) or 6-well (ECHO 30-infected SF) tissue culture plates with 0.9% methylcellulose or 0.4% SeaPlaque agarose semisolid support. Minimum Essential Medium (MEM) with Earle's salts (Gibco), L-glutamine, non-essential amino acids, 2% heat-inactivated fetal bovine serum, 1% penicillin/streptomycin, and 0.05% gentamicin served as the culture medium. The incubation times were 3 days for HF, G, ECHO 30, and Long; and 7 days for AD169 and Adenovirus Type 5. Plaque counting was performed with a 20X dissecting microscope for AD169, Type 5, ECHO 30, and RSV Long, and with a light box for HF and G. The fixative agent was crystal violet for all viruses, except for the CMV strain AD169 for which methylene blue was used. Percent inhibition of plaque formation was calculated by comparing the plaque numbers from the test substance-treated infected cells with the plaque numbers from untreated infected cells (i.e., virus controls). The IC50 values were determined using the Statview statistics program (SAS Institute, Inc., Cary, N.C.).
Statistical analysis. Each drug was tested at 6-7 different concentrations ranging from 0.0001 μM to 100 μM. Each assay was set up in triplicate wells and repeated 1-3 times. An IC50 value was calculated from each set of triplicate wells using nonlinear regression modeling of the exponential form of the linearized equation (Statview, SAS Institute, Inc., Cary, N.C.). […] The IC50 values obtained were correlated to the log transformed hydrolysis rate constants by fitting a linear model (JMP Software, SAS Institute Inc., Cary, N.C.). P-values less than 0.05 were deemed significant.
(§3) The skin fibroblast cell line SF (ATCC CRL-2097) was used as a target for AD169, Adenovirus Type 5, and ECHO 30; the VERO cell line (ATCC CCL-81) was used as a target for HF and G; and the HEP-2 cell line (ATCC CCL-23) was used as target for the RSV strain Long. Results are expressed as the average IC50 values in μM. Stavudine (STV) was included as a control.

[2] = Pharmacokinetic studies in mice, oral administration; assay type: in vivo, Balb/c mice
Description: Female Balb/c mice (6-8 weeks old) from Taconic (Germantown, N.Y.) were housed in a controlled environment (12-hours of light/12-hours of dark, 22±1° C., 60±10% relative humidity), which is fully accredited by the USDA. All rodents were housed in microisolator cages (Lab Products, Inc., NJ) containing autoclaved bedding. The mice were allowed free access to autoclaved pellet food and tap water throughout the study. All animal care procedures conformed to the Guide for the Care and Use of Laboratory Animals (National Research Council, National Academy Press, Washington D.C. 1996).
Sampling time points were 0, 2, 5, 10, 15, 30, 45, 60, 120, 240 and 360 minutes after the gavage.
All collected blood samples were heparinized and centrifuged at 7000×g for 5 minutes to separate the plasma fraction from the whole blood. The plasma samples were then processed immediately using the extraction procedure described above.
Pharmacokinetic modeling and parameter calculations were carried out using the WinNonlin Professional Version 3.0 (Pharsight, Inc., Mountain, Calif.) pharmacokinetics software (Chen et al., Pharm. Res., 16, 1003 (1999); Chen et al., Pharm. Res., 16, 117 (1999); Chen et al., J. Clin. Pharmacol., 39, 1248 (1999); Uckun et al., Clin. Cancer Res., 5, 2954 (1999); and Uckun et al., J. Pharmacol. Exp. Ther., 291, 1301 (1999)). An appropriate model was chosen on the basis of the lowest sum of weighted squared residuals, the lowest Schwartz Criterion (SC), the lowest Akaike's Information Criterion (AIC) value, the lowest standard errors of the fitted parameters, and the dispersion of the residuals. The elimination half-life was estimated by linear regression analysis of the terminal phase of the plasma concentration-time profile. The area under the concentration-time curve (AUC) was calculated according to the linear trapezoidal rule between the first sampling time (0 hours) and the last sampling time plus C/k, where C is the concentration of the last sampling and k is the elimination rate constant. The systemic clearance (CL) was determined by dividing the dose by the AUC. The metabolic clearance of the parent drug, the formation clearance of the metabolite, the clearance elimination of the metabolite, and the distribution clearance of the metabolite were estimated by simultaneous fitting of the concentration of parent drug and metabolites as a function of time curve to pharmacokinetic models (see FIGS. 7A & 8A) specified as a system of differential equations (Gabrielsson & Weiner, Phamacokinetic/Phamacodynamic Data Analysis: Concepts and Applications, Swedish Pharmaceutical Press (1997)).

Solubility = assay type: physicochemical; details: read-out: Solubility
[3] = tested on: enterovirus strain, ECHO 30, strain Bastianni; assay: Enterovirus plaque formation assay in SF cells; assay type: cell-based
Text: as §1
(§4) Plaque formation assays. Plaque assays were used to examine the activity of the compounds against non-HIV viruses. The skin fibroblast cell line SF (ATCC CRL-2097) was used as a target for AD169, Adenovirus Type 5. […] cell line (ATCC CCL-81) was used as a target for HSV HF and G. The HEP-2 cell line (ATCC CCL-23) was used as a target for the RSV strain Long. These cell lines were cultured at 1×10^5 cells/well in 24-well (all but ECHO 30-infected SF) or 6-well (ECHO 30-infected SF) tissue culture plates with 0.9% methylcellulose or 0.4% SeaPlaque agarose semisolid support. […] Percent inhibition of plaque formation was calculated by comparing the plaque numbers from the test substance-treated infected cells with the plaque numbers from untreated infected cells (i.e., virus controls). The IC50 values were determined using the Statview statistics program (SAS Institute, Inc., Cary, N.C.).
(§5) Statistical analysis. […] An IC50 value was calculated from each set of triplicate wells using nonlinear regression modeling of the exponential form of the linearized equation (Statview, SAS Institute, Inc., Cary, N.C.). […]
as §3, with “Stavudine (STV) was included as a control.” left out

HSV Type II strain G = assay: HSV-2 plaque formation assay in VERO cells; assay type: cell-based, herpes simplex virus Type II; details: Human alphaherpesvirus 2, HSV-2, Strain G
Text: as §1, §4, §5
as §3, with “Stavudine (STV) was included as a control.” left out

[4] = tested on: herpes simplex virus (HSV) Type I strain HF; assay: HSV-1 plaque formation assay in VERO cells; assay type: cell-based; details: Human alphaherpesvirus 1, HSV-1, Strain HF
Text: as §1, §4, §5
as §3, with “Stavudine (STV) was included as a control.” left out

skin fibroblasts = assay: Cytotoxicity in skin fibroblasts (plaque assay); assay type: cell-based; details: ADV plaque formation assay
Description: as §2, with “Plaque counting was performed with a 20X dissecting microscope for AD169, Type 5, ECHO 30, and RSV Long, and with a light box for HF and G. The fixative agent was crystal violet for all viruses, except for the CMV strain AD169 for which methylene blue was used.” left out

Stability in plasma = assay type: in vitro ADME
Description: Plasma samples (200 μL) were mixed 1:4 with acetone (800 μL) and vortexed for at least 30 seconds. Following centrifugation, the supernatant was transferred into a clean tube and was dried under nitrogen. A 50 μL solution of 50% methanol in 200 mM HCl was used to reconstitute the extraction residue, and 40 μL was injected into the HPLC.
The whole blood samples were placed in a 37° C. water bath, while plasma samples were stored at −20° C. At a predetermined time, an aliquot (100 μl) of spiked whole blood or plasma was extracted by adding 400 μl of acetone to induce precipitation of proteins, as described above.

[5] = rats, cited from earlier work
[6] = Stability in plasma in the presence of selective esterase inhibitors; details: 250 μM
[7] = Stability in murine liver homogenates; assay type: in vitro ADME, Balb/c mice; details: 100 μM; Balb/c mouse liver homogenate
Description: At a predetermined time, an aliquot (100 μl) of spiked liver homogenate was extracted by adding 400 μl of acetone to induce precipitation of proteins, as described above.

[8] = cats; twice daily hard gelatin capsules 25 mg/kg -100 mg/kg; cumulative dose levels as high as 8.4 g/kg; cited from earlier work

Cc1cn([C@H]2C=C[C@@H](CO)O2)c(=O)[nH]c1=O [d4T, 2′, 3′-Didehydro-3′-deoxy thymidine, reference compound]
IC50 ([1]; Skin fibroblast, […], Adenovirus Type 5, 7 days, ± s.e., read-out: IC50, ADV-induced plaque formation): 12.3 ± 0.3 µM
half-life ([2]; mouse, in vivo, po, mice, orally administered d4T): 18 min
Tmax ([2]; mouse, in vivo, po, mice, orally administered d4T, read-out: tmax (converted)): 5 min
bioavailability ([2]; orally administered d4T): 98%
Solubility (Solubility): 83 mg/mL (≈ 370 mM)
IC50 ([3]; ECHO 30, SF cells, plaque assay, read-out: IC50): > 100 µM
IC50 (HSV Type II strain G): > 100 µM
IC50 [4]: > 100 µM

COC(=O)C(C)NP(=O)(OC[C@@H]1C=C[C@H](n2cc(C)c(=O)[nH]c2=O)O1)Oc1ccc(Br)cc1 (some centres unmarked) [Compound 113, 5′-[4-Bromophenyl methoxylaninylphosphate]-2′, 3′-didehydro-3′-deoxy thymidine]
IC50 ([1]; Adenovirus Type 5, 7 days, ± s.e., read-out: IC50, ADV-induced plaque formation): 0.0223 ± 0.009 µM
IC50 ([1]; Skin fibroblast, […], read-out: IC50, ADV-induced plaque formation, Adenovirus Type 5, 7 days, ± s.e.): 0.022 ± 0.009 µM
cytotoxicity (in words) (skin fibroblasts): without any evidence of cytotoxicity even at 100 μM
time to complete decomposition in plasma (Stability in plasma; 250 μM): ≤ 30 min
decomposed following incubation with plasma (Stability in plasma; 250 μM, after 5 minutes): over 95%
stability in plasma (in words) (Stability in plasma; spiked plasma, 250 μM compound 113, 100 μM Ala-d4T-MP (followed for 1 day)): very unstable
toxicity on daily administration ([5]; intraperitoneally or orally for up to 8 consecutive weeks, cumulative dose levels as high as 6.4 g/kg): not associated with any detectable toxicity
acute or subacute toxicity ([5]; single intraperitoneal or oral bolus dose levels as high as 500 mg/kg): very well tolerated without any detectable acute or subacute toxicity
mean percent hydrolysis in plasma ([6]; EDTA (1 mM), arylesterase, 5 min): 99%
mean percent hydrolysis in plasma ([6]; EDTA (1 mM), arylesterase, 10 min): 100%
mean percent hydrolysis in plasma ([6]; EDTA (1 mM), arylesterase, 15 min): 100%
mean percent hydrolysis in plasma ([6]; EDTA (1 mM), arylesterase, 30 min): 100%
mean percent hydrolysis in plasma ([6]; EDTA (1 mM), arylesterase, 60 min): 100%
mean percent hydrolysis in plasma ([6]; EDTA (1 mM), arylesterase, 120 min): 100%
mean percent hydrolysis in plasma ([6]; No inhibitor, 5 min): 95%
mean percent hydrolysis in plasma ([6]; No inhibitor, 10 min): 98%
mean percent hydrolysis in plasma ([6]; No inhibitor, 15 min): 99%
mean percent hydrolysis in plasma ([6]; No inhibitor, 30 min): 100%
mean percent hydrolysis in plasma ([6]; No inhibitor, 60 min): 100%
mean percent hydrolysis in plasma ([6]; No inhibitor, 120 min): 100%
mean percent hydrolysis in plasma ([6]; Paraoxon (0.1 mM), cholinesterase & carboxylesterase, 5 min): 0%
mean percent hydrolysis in plasma ([6]; Paraoxon (0.1 mM), cholinesterase & carboxylesterase, 10 min): 2%
mean percent hydrolysis in plasma ([6]; Paraoxon (0.1 mM), cholinesterase & carboxylesterase, 15 min): 2%
mean percent hydrolysis in plasma ([6]; Paraoxon (0.1 mM), cholinesterase & carboxylesterase, 30 min): 2%
mean percent hydrolysis in plasma ([6]; Paraoxon (0.1 mM), cholinesterase & carboxylesterase, 60 min): 3%
mean percent hydrolysis in plasma ([6]; Paraoxon (0.1 mM), cholinesterase & carboxylesterase, 120 min): 24%
mean percent hydrolysis in plasma ([6]; Physostigmine (0.1 mM), cholinesterase, 5 min): 43%
mean percent hydrolysis in plasma ([6]; Physostigmine (0.1 mM), cholinesterase, 10 min): 65%
mean percent hydrolysis in plasma ([6]; Physostigmine (0.1 mM), cholinesterase, 15 min): 76%
mean percent hydrolysis in plasma ([6]; Physostigmine (0.1 mM), cholinesterase, 30 min): 89%
mean percent hydrolysis in plasma ([6]; Physostigmine (0.1 mM), cholinesterase, 60 min): 100%
mean percent hydrolysis in plasma ([6]; Physostigmine (0.1 mM), cholinesterase, 120 min): 100%
time to decomposition in liver homogenate [7]: ≤ 30 min
plasma concentration of the parent ([2]; after oral 100 mg/kg compound 113, below the detection limit): < 500 nM
Solubility (Solubility): 3 mg/mL (≈ 5.51 mM)
tolerability of four-week treatment course [8]: very well tolerated
IC50 [3]: > 100 µM
IC50 (HSV Type II strain G): > 100 µM
IC50 [4]: > 100 µM

— patent publication US20030236218A1, “Aryl phosphate derivatives of d4T with selective activity against adenovirus and HIV” (priority 2002, published 2003)
